Reference: US6419941B1, “Polyol ester insecticides and method of synthesis” (AVA Chemical Ventures L.L.C., priority 2000, dated 2002)
“Also recorded” adds a separate entry of the source.

Columns and labels:
Assay type in all cases: in vivo
[1] = tested on: tobacco aphid; assay: effectiveness against tobacco aphid; settings: comparison in words, FIG. 9-11
Description: (§1) The chain lengths were systematically varied to determine if the chain length was critical as to the effectiveness as insecticides. The compounds were tested against pear psylla, tobacco hornworms, tobacco aphids and two-spotted spider mites.

[2] = tested on: two-spotted spider mite; assay: effectiveness against two-spotted spider mite; settings: comparison in words, FIG. 12
Description: as §1

[3] = insecticidal activity, insect not specified; settings: general statement, insect not named
[4] = tested on: pear psylla; assay: kill of pear psylla by polyol esters; settings: comparison in words, FIG. 1, 6, 7
Description: as §1

| Substance | effectiveness against tobacco aphid [1] | effectiveness against two-spotted spider mite [2] | effectiveness as insecticide / insecticidal activity [3] | effectiveness (kill data) on pear psylla [4] | effectiveness (kill data) on pear psylla ([4]; listed as C10 acid ester) |
| --- | --- | --- | --- | --- | --- |
| D-Glucitol, decanoate [sorbitol decanoate] | more effective than xylitol laurate; also recorded: better than a commercially available insecticidal soap product | marginally more effective than the others |  |  |  |
| D-Glucitol, octanoate [sorbitol octanoate] | more effective than sorbitol decanoate |  | more effective as insecticides | the most effective |  |
| Xylitol decanoate |  |  | the most effective for xylitol | most effective | the most effective |
| Xylitol dodecanoate [xylitol laurate] | more effective than xylitol decanoate; also recorded: better than a commercially available insecticidal soap product |  |  |  |  |
| sucrose octanoate |  |  | the monoesters were more effective as insecticides than the diesters and triesters | monoesters that are more effective as insecticides than the diesters and triesters |  |
| sucrose stearate [commercial sucrose stearate product] |  |  | does not have insecticidal activity |  |  |
